Measured values as given in PubChem BioAssay AID330 (DTP/NCI, 2004).
Values joined by “and” are separate entries in the source; they are usually repeats but may differ in a detail not shown here. Equal values may be shown once. Toxic doses and inconclusive results are not listed. The calls were made as follows: active = survival T/C of 150% or more; inactive = T/C below 125% in these data.

System: P388 leukemia ip, CD2F1 mice, survival T/C
Experiment: NCI In Vivo Anticancer Drug Screen. Data for tumor model P388 Leukemia (intraperitoneal) in CD2F1 (CDF1) mice
Conditions: endpoint: median survival time, higher = longer survival
Outline: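 Mice carrying the transplanted tumor received test compound or vehicle. Survival was recorded in each group, and the value is the treated-group measurement divided by that of the vehicle-treated control group.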

[1] = dose: 25.0 mg/kg/injection, schedule: Q01DX005 (ip), vehicle: saline with Tween-80
[2] = dose: 50.0 mg/kg/injection, schedule: Q01DX005 (ip), vehicle: saline with Tween-80
[3] = dose: 100.0 mg/kg/injection, schedule: Q01DX005 (ip), vehicle: saline with Tween-80
[4] = dose: 200.0 mg/kg/injection, schedule: Q01DX005 (ip), vehicle: saline with Tween-80
[5] = dose: 6.25 mg/kg/injection, schedule: Q01DX009 (ip), vehicle: water
[6] = dose: 12.5 mg/kg/injection, schedule: Q01DX009 (ip), vehicle: water
[7] = dose: 25.0 mg/kg/injection, schedule: Q01DX009 (ip), vehicle: water
[8] = dose: 100.0 mg/kg/injection, schedule: Q01DX009 (ip), vehicle: water
[9] = dose: 100.0 mg/kg/injection, schedule: Q04DX003 (ip), vehicle: saline
[10] = dose: 200.0 mg/kg/injection, schedule: Q04DX003 (ip), vehicle: saline
[11] = dose: 400.0 mg/kg/injection, schedule: Q04DX003 (ip), vehicle: saline
[12] = dose: 50.0 mg/kg/injection, schedule: Q01DX005 (ip), vehicle: Klucel (hydroxypropylcellulose) (HPC)
[13] = dose: 100.0 mg/kg/injection, schedule: Q01DX005 (ip), vehicle: Klucel (hydroxypropylcellulose) (HPC)
[14] = dose: 200.0 mg/kg/injection, schedule: Q01DX005 (ip), vehicle: Klucel (hydroxypropylcellulose) (HPC)
[15] = dose: 60.0 mg/kg/injection, schedule: Q01DX005 (ip), vehicle: saline with Tween-80
[16] = dose: 120.0 mg/kg/injection, schedule: Q01DX005 (ip), vehicle: saline with Tween-80
[17] = dose: 240.0 mg/kg/injection, schedule: Q01DX005 (ip), vehicle: saline with Tween-80

Measured: T/C

CC1(C)SC(C)(C)N2C(=O)[C@H]3N(C(=O)[C@@H]21)C(C)(C)SC3(C)C
inactive: dose: 12.5 mg/kg/injection, schedule: Q01DX005 (ip), vehicle: saline with Tween-80 100 % of control | [1] 94 % of control | [2] 99 % of control and 91 % of control | [3] 94 % of control | [4] 97 % of control

O=NNc1nccnn1
inactive: dose: 3.12 mg/kg/injection, schedule: Q01DX009 (ip), vehicle: water 105 % of control | [5] 107 % of control | [6] 105 % of control | [7] 108 % of control and 111 % of control | dose: 50.0 mg/kg/injection, schedule: Q01DX009 (ip), vehicle: water 114 % of control and 118 % of control | [8] 120 % of control | dose: 200.0 mg/kg/injection, schedule: Q01DX009 (ip), vehicle: water 119 % of control

CC(C)CCCCCCCCCCCCC(=O)NCC(=O)O
inactive: dose: 12.5 mg/kg/injection, schedule: Q01DX009 (ip), vehicle: distilled water + Tween-80 96 % of control | dose: 25.0 mg/kg/injection, schedule: Q01DX009 (ip), vehicle: distilled water + Tween-80 96 % of control | dose: 50.0 mg/kg/injection, schedule: Q01DX009 (ip), vehicle: distilled water + Tween-80 86 % of control | dose: 100.0 mg/kg/injection, schedule: Q01DX009 (ip), vehicle: distilled water + Tween-80 86 % of control | dose: 200.0 mg/kg/injection, schedule: Q01DX009 (ip), vehicle: distilled water + Tween-80 87 % of control

OCc1c(CO)c(C(F)(F)F)n2c1CCC2
inactive: dose: 50.0 mg/kg/injection, schedule: Q01DX009 (ip), vehicle: Klucel (hydroxypropylcellulose) (HPC) 104 % of control | dose: 100.0 mg/kg/injection, schedule: Q01DX009 (ip), vehicle: Klucel (hydroxypropylcellulose) (HPC) 104 % of control

COc1cc2cc(-c3ccccc3)[n+](C)cc2cc1OC
inactive: dose: 12.5 mg/kg/injection, schedule: Q01DX001 (ip), vehicle: saline 95 % of control | dose: 25.0 mg/kg/injection, schedule: Q01DX001 (ip), vehicle: saline 110 % of control

CNC(=O)c1ccccc1NC(=O)CCC(=O)O
inactive: [9] 100 % of control | [10] 99 % of control | [11] 100 % of control

CCOC1NC(=O)C(OCC)NC1=O (configuration not stated)
inactive: [12] 96 % of control | [13] 99 % of control | [14] 97 % of control

O=C(Cc1nc2ccccc2[nH]c1=O)c1cccnc1
inactive: [15] 99 % of control | [16] 94 % of control | [17] 98 % of control

COc1ccc(CCNC(=O)Cc2ccc(Cl)cc2)cc1OC
inactive: [15] 99 % of control | [16] 97 % of control | [17] 92 % of control

COc1ccc(NC2=C(Cl)C(=O)C(Nc3ccc(OC)cc3)=C(Cl)C2=O)cc1
inactive: [2] 95 % of control | [3] 97 % of control | [4] 98 % of control

O=C(NC(Cc1ccc(I)cc1)C(=O)O)c1ccc(I)cc1 (configuration not stated)
inactive: [12] 96 % of control | [13] 104 % of control | [14] 104 % of control

COc1ccc(OC)c(C(=O)C=C(C(F)(F)F)C(F)(F)F)c1
inactive: dose: 25.0 mg/kg/injection, schedule: Q01DX009 (ip), vehicle: other 120 % of control | dose: 50.0 mg/kg/injection, schedule: Q04DX003 (ip), vehicle: other 113 % of control | dose: 66.0 mg/kg/injection, schedule: Q04DX003 (ip), vehicle: other 109 % of control | dose: 100.0 mg/kg/injection, schedule: Q01DX009 (ip), vehicle: other 95 % of control | dose: 100.0 mg/kg/injection, schedule: Q04DX003 (ip), vehicle: other 109 % of control | dose: 150.0 mg/kg/injection, schedule: Q04DX003 (ip), vehicle: other 113 % of control

CN(CCC(=O)/C(=C\c1ccccc1)c1ccc(Cl)cc1)Cc1ccccc1
inactive: dose: 0.4 mg/kg/injection, schedule: Q01DX005 (ip), vehicle: saline with Tween-80 101 % of control | dose: 0.8 mg/kg/injection, schedule: Q01DX005 (ip), vehicle: saline with Tween-80 102 % of control | dose: 1.6 mg/kg/injection, schedule: Q01DX005 (ip), vehicle: saline with Tween-80 109 % of control | dose: 3.12 mg/kg/injection, schedule: Q01DX005 (ip), vehicle: saline with Tween-80 109 % of control | dose: 6.25 mg/kg/injection, schedule: Q01DX005 (ip), vehicle: saline with Tween-80 111 % of control

CN(C)Cc1cccc[c]1[Sn]([CH3])([Br])[c]1ccccc1CN(C)C
inactive: dose: 3.12 mg/kg/injection, schedule: Q01DX009 (ip), vehicle: saline 101 % of control and 113 % of control and 88 % of control

C=CCC(CC1CC2CCCCN2O1)OCc1ccccc1 (configuration not stated)
inactive: dose: 100.0 mg/kg/injection, schedule: Q04DX003 (ip), vehicle: saline with Tween-80 101 % of control | dose: 200.0 mg/kg/injection, schedule: Q04DX003 (ip), vehicle: saline with Tween-80 105 % of control | dose: 400.0 mg/kg/injection, schedule: Q04DX003 (ip), vehicle: saline with Tween-80 104 % of control

NNc1nccnc1Cl
inactive: dose: 50.0 mg/kg/injection, schedule: Q01DX001 (ip), vehicle: saline with Tween-80 102 % of control | dose: 100.0 mg/kg/injection, schedule: Q01DX001 (ip), vehicle: saline with Tween-80 97 % of control | dose: 200.0 mg/kg/injection, schedule: Q01DX001 (ip), vehicle: saline with Tween-80 108 % of control

COc1cc(C2c3cc4c(cc3OC(C)(O)C2C)OCO4)cc(OC)c1OC (configuration not stated)
inactive: dose: 12.5 mg/kg/injection, schedule: Q01DX005 (ip), vehicle: saline 104 % of control and 105 % of control | [1] 107 % of control | dose: 25.0 mg/kg/injection, schedule: Q01DX005 (ip), vehicle: saline 105 % of control | [2] 103 % of control | dose: 50.0 mg/kg/injection, schedule: Q01DX005 (ip), vehicle: saline 102 % of control and 105 % of control | dose: 100.0 mg/kg/injection, schedule: Q01DX005 (ip), vehicle: saline 107 % of control and 113 % of control | dose: 200.0 mg/kg/injection, schedule: Q01DX005 (ip), vehicle: saline 111 % of control

COc1cc2cc[n+](C)cc2cc1OC
inactive: [5] 90 % of control | [6] 102 % of control | dose: 22.0 mg/kg/injection, schedule: Q01DX009 (ip), vehicle: water 121 % of control | [7] 107 % of control | dose: 33.0 mg/kg/injection, schedule: Q01DX009 (ip), vehicle: water 115 % of control | dose: 75.0 mg/kg/injection, schedule: Q01DX009 (ip), vehicle: water 121 % of control | [8] 123 % of control

COc1cc(CCl)c(I)c(OC)c1OC
inactive: dose: 100.0 mg/kg/injection, schedule: Q01DX001 (ip), vehicle: Klucel (hydroxypropylcellulose) (HPC) 103 % of control | dose: 200.0 mg/kg/injection, schedule: Q01DX001 (ip), vehicle: Klucel (hydroxypropylcellulose) (HPC) 107 % of control | dose: 400.0 mg/kg/injection, schedule: Q01DX001 (ip), vehicle: Klucel (hydroxypropylcellulose) (HPC) 102 % of control

Cc1nc2[nH]c(=O)ccc2c(C)c1N
inactive: dose: 25.0 mg/kg/injection, schedule: Q04DX002 (ip), vehicle: saline with Tween-80 103 % of control | dose: 50.0 mg/kg/injection, schedule: Q04DX002 (ip), vehicle: saline with Tween-80 110 % of control | dose: 100.0 mg/kg/injection, schedule: Q04DX002 (ip), vehicle: saline with Tween-80 100 % of control

c1ccc(-c2nc(-c3ccccc3)c3ccccc3n2)cc1
inactive: dose: 25.0 mg/kg/injection, schedule: Q01DX009 (ip), vehicle: saline with Tween-80 104 % of control | dose: 50.0 mg/kg/injection, schedule: Q01DX009 (ip), vehicle: saline with Tween-80 114 % of control | dose: 100.0 mg/kg/injection, schedule: Q01DX009 (ip), vehicle: saline with Tween-80 114 % of control

N#CCCCCCCCCCCCC1C=CCC1 (configuration not stated)
inactive: dose: 100.0 mg/kg/injection, schedule: Q01DX001 (ip), vehicle: saline 100 % of control | dose: 200.0 mg/kg/injection, schedule: Q01DX001 (ip), vehicle: saline 98 % of control | dose: 400.0 mg/kg/injection, schedule: Q01DX001 (ip), vehicle: saline 100 % of control

O=[N+]([O-])c1ccc2nc3ccccc3cc2c1
inactive: dose: 50.0 mg/kg/injection, schedule: Q04DX003 (ip), vehicle: saline 112 % of control | [9] 96 % of control | [10] 96 % of control | [11] 93 % of control
